Test results reported in US10202361B2, “Pyridazinones as herbicides” (E I DU PONT DE NEMOURS AND COMPANY, priority 2014, dated 2019).
Where two headings read alike, the source gives them in different places.

Columns and labels:
Experiment in all cases: Test C pre-/postemergence greenhouse herbicide test
Type in all cases: in vivo
[1] = system: lambsquarters (Chenopodium album)
Procedure, shortened: (§1)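 Plant response is scored on a 0–100 scale, where 100 means complete control, by visual comparison with controls 13 to 15 d after greenhouse treatment. Applications are made pre- and postemergence using a surfactant-containing, non-phytotoxic solvent formulation.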

soybean (Glycine max) = settings: Glycine max, Soybean, read-out: Plant response rating; for plant injury at 62 g/ha: 62 g ai/ha; for plant injury at 125 g/ha: 125 g ai/ha; for plant injury at 250 g/ha: 250 g ai/ha
Procedure, shortened: as §1

[2] = system: oilseed rape (Brassica napus); settings: Oilseed Rape
Procedure, shortened: as §1

corn (Zea mays) = settings: Zea mays, Corn, read-out: Plant response rating; for plant injury at 31 g/ha: 31 g ai/ha; for plant injury at 62 g/ha: 62 g ai/ha; for plant injury at 125 g/ha: 125 g ai/ha; for plant injury at 250 g/ha: 250 g ai/ha
Procedure, shortened: as §1

[3] = system: morningglory (Ipomoea coccinea); settings: Morningglory
Procedure, shortened: as §1

[4] = system: velvetleaf (Abutilon theophrasti); settings: Abutilon theophrasti, Velvetleaf, read-out: Plant response rating; for pest or weed control at 62 g/ha: 62 g ai/ha; for pest or weed control at 125 g/ha: 125 g ai/ha; for pest or weed control at 250 g/ha: 250 g ai/ha
Procedure, shortened: as §1

[5] = system: pigweed (Amaranthus retroflexus); settings: Amaranthus retroflexus, Pigweed, read-out: Plant response rating; for pest or weed control at 31 g/ha: 31 g ai/ha; for pest or weed control at 62 g/ha: 62 g ai/ha; for pest or weed control at 125 g/ha: 125 g ai/ha; for pest or weed control at 250 g/ha: 250 g ai/ha
Procedure, shortened: as §1

[6] = system: nutsedge, yellow (yellow nutsedge, Cyperus esculentus); settings: Cyperus, Nutsedge, Yellow, read-out: Plant response rating; for pest or weed control at 31 g/ha: 31 g ai/ha; for pest or weed control at 62 g/ha: 62 g ai/ha; for pest or weed control at 125 g/ha: 125 g ai/ha; for pest or weed control at 250 g/ha: 250 g ai/ha
Procedure, shortened: as §1

[7] = system: crabgrass, Large (large crabgrass, Digitaria sanguinalis); settings: Digitaria sanguinalis, Crabgrass, Large, read-out: Plant response rating; for pest or weed control at 31 g/ha: 31 g ai/ha; for pest or weed control at 62 g/ha: 62 g ai/ha; for pest or weed control at 125 g/ha: 125 g ai/ha; for pest or weed control at 250 g/ha: 250 g ai/ha
Procedure, shortened: as §1

[8] = system: foxtail, giant (giant foxtail, Setaria faberii); settings: Setaria faberi, Foxtail, Giant, read-out: Plant response rating; for pest or weed control at 31 g/ha: 31 g ai/ha; for pest or weed control at 62 g/ha: 62 g ai/ha; for pest or weed control at 125 g/ha: 125 g ai/ha; for pest or weed control at 250 g/ha: 250 g ai/ha
Procedure, shortened: as §1

[9] = system: blackgrass (Alopecurus myosuroides); settings: Alopecurus myosuroides, Blackgrass, read-out: Plant response rating; for pest or weed control at 31 g/ha: 31 g ai/ha; for pest or weed control at 62 g/ha: 62 g ai/ha; for pest or weed control at 125 g/ha: 125 g ai/ha; for pest or weed control at 250 g/ha: 250 g ai/ha
Procedure, shortened: as §1

[10] = system: ryegrass, Italian (Italian ryegrass, Lolium multiflorum); settings: Lolium multiflorum, Ryegrass, Italian, read-out: Plant response rating; for pest or weed control at 31 g/ha: 31 g ai/ha; for pest or weed control at 62 g/ha: 62 g ai/ha; for pest or weed control at 125 g/ha: 125 g ai/ha; for pest or weed control at 250 g/ha: 250 g ai/ha
Procedure, shortened: as §1

SMILES: COc1cc(=O)n(-c2ccc(C(F)(F)F)cc2)nc1Cc1ccnc(C(F)(F)F)c1 [Compound 16, 5-methoxy-2-[4-(trifluoromethyl)phenyl]-6-[[2-(trifluoromethyl)-4-pyridinyl]methyl]-3(2H)-pyridazinone]
- Plant response rating ([1]; Postemergence, 31 g ai/ha): 70
- Plant response rating ([1]; Postemergence, 62 g ai/ha): 95
- Plant response rating ([1]; Postemergence, 125 g ai/ha): 95
- Plant response rating ([1]; Postemergence, 250 g ai/ha): 95
- Plant response rating ([1]; Preemergence, 31 g ai/ha): 100
- Plant response rating ([1]; Preemergence, 62 g ai/ha): 100
- Plant response rating ([1]; Preemergence, 125 g ai/ha): 100
- Plant response rating ([1]; Preemergence, 250 g ai/ha): 100
- plant injury at 62 g/ha (soybean (Glycine max); post-emergence, Postemergence): 50%
- plant injury at 125 g/ha (soybean (Glycine max); post-emergence, Postemergence): 55%
- plant injury at 250 g/ha (soybean (Glycine max); post-emergence, Postemergence): 65%
- plant injury at 62 g/ha (soybean (Glycine max); pre-emergence, Preemergence): 25%
- plant injury at 125 g/ha (soybean (Glycine max); pre-emergence, Preemergence): 65%
- plant injury at 250 g/ha (soybean (Glycine max); pre-emergence, Preemergence): 75%
- Plant response rating ([2]; Postemergence, 31 g ai/ha): 60
- Plant response rating ([2]; Postemergence, 62 g ai/ha): 60
- Plant response rating ([2]; Postemergence, 125 g ai/ha): 80
- Plant response rating ([2]; Preemergence, 31 g ai/ha): 65
- Plant response rating ([2]; Preemergence, 62 g ai/ha): 100
- Plant response rating ([2]; Preemergence, 125 g ai/ha): 100
- Plant response rating ([2]; Preemergence, 250 g ai/ha): 100
- plant injury at 31 g/ha (corn (Zea mays); post-emergence, Postemergence): 20%
- plant injury at 62 g/ha (corn (Zea mays); post-emergence, Postemergence): 40%
- plant injury at 125 g/ha (corn (Zea mays); post-emergence, Postemergence): 40%
- plant injury at 250 g/ha (corn (Zea mays); post-emergence, Postemergence): 55%
- plant injury at 31 g/ha (corn (Zea mays); pre-emergence, Preemergence): 45%
- plant injury at 62 g/ha (corn (Zea mays); pre-emergence, Preemergence): 60%
- plant injury at 125 g/ha (corn (Zea mays); pre-emergence, Preemergence): 75%
- plant injury at 250 g/ha (corn (Zea mays); pre-emergence, Preemergence): 75%
- Plant response rating ([3]; Postemergence, 31 g ai/ha): 50
- Plant response rating ([3]; Postemergence, 62 g ai/ha): 70
- Plant response rating ([3]; Postemergence, 125 g ai/ha): 98
- Plant response rating ([3]; Postemergence, 250 g ai/ha): 98
- Plant response rating ([3]; Preemergence, 31 g ai/ha): 45
- Plant response rating ([3]; Preemergence, 62 g ai/ha): 95
- Plant response rating ([3]; Preemergence, 125 g ai/ha): 100
- Plant response rating ([3]; Preemergence, 250 g ai/ha): 100
- pest or weed control at 31 g/ha ([4]; post-emergence, Postemergence, 31 g ai/ha): 25%
- pest or weed control at 62 g/ha ([4]; post-emergence, Postemergence): 50%
- pest or weed control at 125 g/ha ([4]; post-emergence, Postemergence): 60%
- pest or weed control at 250 g/ha ([4]; post-emergence, Postemergence): 75%
- pest or weed control at 62 g/ha ([4]; pre-emergence, Preemergence): 80%
- pest or weed control at 125 g/ha ([4]; pre-emergence, Preemergence): 100%
- pest or weed control at 250 g/ha ([4]; pre-emergence, Preemergence): 100%
- pest or weed control at 31 g/ha ([5]; post-emergence, Postemergence): 55%
- pest or weed control at 62 g/ha ([5]; post-emergence, Postemergence): 90%
- pest or weed control at 125 g/ha ([5]; post-emergence, Postemergence): 95%
- pest or weed control at 250 g/ha ([5]; post-emergence, Postemergence): 95%
- pest or weed control at 31 g/ha ([5]; pre-emergence, Preemergence): 100%
- pest or weed control at 62 g/ha ([5]; pre-emergence, Preemergence): 100%
- pest or weed control at 125 g/ha ([5]; pre-emergence, Preemergence): 100%
- pest or weed control at 250 g/ha ([5]; pre-emergence, Preemergence): 100%
- pest or weed control at 31 g/ha ([6]; post-emergence, Postemergence): 5%
- pest or weed control at 62 g/ha ([6]; post-emergence, Postemergence): 5%
- pest or weed control at 125 g/ha ([6]; post-emergence, Postemergence): 5%
- pest or weed control at 250 g/ha ([6]; post-emergence, Postemergence): 20%
- pest or weed control at 31 g/ha ([6]; pre-emergence, Preemergence): 5%
- pest or weed control at 62 g/ha ([6]; pre-emergence, Preemergence): 10%
- pest or weed control at 125 g/ha ([6]; pre-emergence, Preemergence): 30%
- pest or weed control at 250 g/ha ([6]; pre-emergence, Preemergence): 55%
- pest or weed control at 31 g/ha ([7]; post-emergence, Postemergence): 10%
- pest or weed control at 62 g/ha ([7]; post-emergence, Postemergence): 25%
- pest or weed control at 125 g/ha ([7]; post-emergence, Postemergence): 30%
- pest or weed control at 250 g/ha ([7]; post-emergence, Postemergence): 35%
- pest or weed control at 31 g/ha ([7]; pre-emergence, Preemergence): 98%
- pest or weed control at 62 g/ha ([7]; pre-emergence, Preemergence): 98%
- pest or weed control at 125 g/ha ([7]; pre-emergence, Preemergence): 100%
- pest or weed control at 250 g/ha ([7]; pre-emergence, Preemergence): 100%
- pest or weed control at 31 g/ha ([8]; post-emergence, Postemergence): 15%
- pest or weed control at 62 g/ha ([8]; post-emergence, Postemergence): 15%
- pest or weed control at 125 g/ha ([8]; post-emergence, Postemergence): 30%
- pest or weed control at 250 g/ha ([8]; post-emergence, Postemergence): 55%
- pest or weed control at 31 g/ha ([8]; pre-emergence, Preemergence): 98%
- pest or weed control at 62 g/ha ([8]; pre-emergence, Preemergence): 98%
- pest or weed control at 125 g/ha ([8]; pre-emergence, Preemergence): 100%
- pest or weed control at 250 g/ha ([8]; pre-emergence, Preemergence): 100%
- pest or weed control at 31 g/ha ([9]; post-emergence, Postemergence): 5%
- pest or weed control at 62 g/ha ([9]; post-emergence, Postemergence): 5%
- pest or weed control at 125 g/ha ([9]; post-emergence, Postemergence): 5%
- pest or weed control at 250 g/ha ([9]; post-emergence, Postemergence): 10%
- pest or weed control at 31 g/ha ([9]; pre-emergence, Preemergence): 40%
- pest or weed control at 62 g/ha ([9]; pre-emergence, Preemergence): 50%
- pest or weed control at 125 g/ha ([9]; pre-emergence, Preemergence): 60%
- pest or weed control at 250 g/ha ([9]; pre-emergence, Preemergence): 90%
- pest or weed control at 31 g/ha ([10]; post-emergence, Postemergence): 5%
- pest or weed control at 62 g/ha ([10]; post-emergence, Postemergence): 5%
- pest or weed control at 125 g/ha ([10]; post-emergence, Postemergence): 15%
- pest or weed control at 250 g/ha ([10]; post-emergence, Postemergence): 35%
- pest or weed control at 31 g/ha ([10]; pre-emergence, Preemergence): 5%
- pest or weed control at 62 g/ha ([10]; pre-emergence, Preemergence): 30%
- pest or weed control at 125 g/ha ([10]; pre-emergence, Preemergence): 85%
- pest or weed control at 250 g/ha ([10]; pre-emergence, Preemergence): 90%
